Target: kynurenine 3-monooxygenase (KMO; Recombinant human Kynurenine 3-hydroxylase) (Homo sapiens, UniProt O15229)
Assay: SPR (Biacore T200, KMO immobilized on CM5 chip by amine coupling, […] binding model)

Sequence of kynurenine 3-monooxygenase (KMO; Recombinant human Kynurenine 3-hydroxylase) (O15229 whole entry): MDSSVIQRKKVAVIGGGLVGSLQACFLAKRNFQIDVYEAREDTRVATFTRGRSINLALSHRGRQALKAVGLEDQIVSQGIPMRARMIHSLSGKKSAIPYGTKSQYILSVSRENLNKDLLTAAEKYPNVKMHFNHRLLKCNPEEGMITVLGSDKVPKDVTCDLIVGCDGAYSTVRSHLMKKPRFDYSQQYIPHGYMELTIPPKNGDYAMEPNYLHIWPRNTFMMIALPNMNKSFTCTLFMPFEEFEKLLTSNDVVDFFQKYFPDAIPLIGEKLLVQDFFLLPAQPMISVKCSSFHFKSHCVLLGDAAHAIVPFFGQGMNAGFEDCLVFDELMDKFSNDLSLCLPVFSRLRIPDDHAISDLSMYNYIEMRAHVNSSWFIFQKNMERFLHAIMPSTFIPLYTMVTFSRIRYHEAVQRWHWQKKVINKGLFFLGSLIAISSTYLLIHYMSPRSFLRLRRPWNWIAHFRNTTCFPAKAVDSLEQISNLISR

Kd: 1960 nM
SMILES: CC(C)=CCC[C@](C)(O[C@@H]1O[C@H](CO[C@@H]2OC[C@@H](O)[C@H](O)[C@H]2O)[C@@H](O)[C@H](O)[C@H]1O)[C@H]1CC[C@]2(C)[C@@H]1[C@H](O)C[C@@H]1[C@@]3(C)CC[C@H](O[C@@H]4O[C@H](CO)[C@@H](O)[C@H](O)[C@H]4O[C@@H]4O[C@H](CO)[C@@H](O)[C@H](O)[C@H]4O)C(C)(C)[C@@H]3CC[C@]12C [Ginsenoside Rb3]

Source: article PMC10321280, “Inhibition of KMO Ameliorates Myocardial Ischemia Injury via Maintaining Mitochondrial Fusion and Fission Balance” (International Journal of Biological Sciences, 2023)
